Test results published in patent publication US5196445A, “Heteroaryl-3-oxo-propanenitrile derivatives useful in the treatment of rheumatoid arthritis and other autoimmune diseases” (Farmitalia Carlo Erba Srl, priority 1989, dated 1993).
Like-named read-outs stand apart in the source and are kept apart here.

How the values were obtained:
[1] = approximate acute toxicity (LD50) in the mouse, per os, single administration of increasing doses; conditions: in vivo, po, measured on the seventh day after treatment
From the text: In view of their high biological activity and low toxicity the compounds of the invention can be safely used in medicine. For example, the approximate acute toxicity (LD50) in the mouse of the compounds 2-cyano-3-(1,4-dihydro-1-phenyl-[1]-benzopyrano[4,3-c]pyrazol-3-yl)-3-oxo- N-phenyl-propanamide, and 2-cyano-3-(1,4-dihydro-1-phenyl-[1]-benzothiopyrano[4,3-c]pyrazol-3-yl)-3- oxo-N-phenyl-propanamide, determined per os with single administration of increasing doses and measured on the seventh day after the day of treatment, is higher than 800 mg/kg. Analogous toxocity data have been found for the other compounds of the invention.

[2] = test system: adjuvant arthritis in rats; experiment: Mycobacterium smegmatis induced adjuvant arthritis in rats (contralateral/left hind paw oedema, systemic phase); type: in vivo, male Lewis rats; conditions: 10 mg/kg i.p.; for inhibition in vivo at 10 mg/kg: Mycolicibacterium smegmatis, ip, left hind paw oedema; for Oedema volume ± S.E., day 18 / Oedema volume ± S.E., day 21 / Oedema volume ± S.E., day 25: left hind paw, systemic phase
Procedure: Mycobacterium smegmatis induced adjuvant arthritis in rats Adjuvant arthritis is induced in groups of 10-30 male Lewis rats, weighing 150 g, by injecting 75 μg of M. smegmatis in 50 μl of mineral oil into the plantar surface of the right hind foot pad. The test compounds are administered at 10 mg/kg i.p.), 5 days a week for 4 weeks, starting on the same day of the mycobacterium injection. The volume of the controlateral (systematic phase) hind foot pad is measured pletismographically on days 18, 21 and 25.

[3] = 432 h, Table 1, day 18, read-out: % inhibition vs. controls, day 18
[4] = 504 h, Table 1, day 21, read-out: % inhibition vs. controls, day 21
[5] = 600 h, Table 1, day 25, read-out: % inhibition vs. controls, day 25
[6] = 432 h, Table 2, day 18, read-out: % inhibition vs. controls, day 18
[7] = 504 h, Table 2, day 21, read-out: % inhibition vs. controls, day 21
[8] = 600 h, Table 2, day 25, read-out: % inhibition vs. controls, day 25

N#CC(C(=O)Nc1ccccc1)C(=O)c1nn(-c2ccccc2)c2c1CSc1ccccc1-2 (centres unmarked) [FCE 24578, 2-cyano-3-(1,4-dihydro-1-phenyl-[1]-benzothiopyrano[4,3-c]pyrazol-3-yl)-3-oxo-N-phenyl-propanamide]
LD50 at 168 h [1]: > 800 mg/kg | inhibition in vivo at 10 mg/kg [2, 3]: 75% | inhibition in vivo at 10 mg/kg [2, 4]: 65% | inhibition in vivo at 10 mg/kg [2, 5]: 68% | Oedema volume ± S.E., day 18 ([2]; Table 1, day 18): 310 ± 180 mm^3 | Oedema volume ± S.E., day 21 ([2]; Table 1, day 21): 470 ± 215 mm^3 | Oedema volume ± S.E., day 25 ([2]; Table 1, day 25): 460 ± 241 mm^3

N#CC(C(=O)Nc1ccccc1)C(=O)c1nn(-c2ccccc2)c2c1COc1ccccc1-2 (centres unmarked) [FCE 25158, 2-cyano-3-(1,4-dihydro-1-phenyl-[1]-benzopyrano[4,3-c]pyrazol-3-yl)-3-oxo-N-phenyl-propanamide]
LD50 at 168 h [1]: > 800 mg/kg | inhibition in vivo at 10 mg/kg [2, 6]: 30% | inhibition in vivo at 10 mg/kg [2, 7]: 38% | inhibition in vivo at 10 mg/kg [2, 8]: 41% | Oedema volume ± S.E., day 18 ([2]; Table 2, day 18): 700 ± 198 mm^3 | Oedema volume ± S.E., day 21 ([2]; Table 2, day 21): 683 ± 174 mm^3 | Oedema volume ± S.E., day 25 ([2]; Table 2, day 25): 717 ± 182 mm^3

N#CC(C(=O)Nc1ccccc1)C(=O)c1nn(-c2ccccc2)c2c1CCc1ccccc1-2 (centres unmarked) [FCE 25161, 2-cyano-3-(4,5-dihydro-1-phenyl-[1]-benz[g]indazol-3-yl)-3-oxo-N-phenyl-propanamide]
inhibition in vivo at 10 mg/kg [2, 3]: 50% | inhibition in vivo at 10 mg/kg [2, 4]: 49% | inhibition in vivo at 10 mg/kg [2, 5]: 49% | Oedema volume ± S.E., day 18 ([2]; Table 1, day 18): 665 ± 91 mm^3 | Oedema volume ± S.E., day 21 ([2]; Table 1, day 21): 675 ± 96 mm^3 | Oedema volume ± S.E., day 25 ([2]; Table 1, day 25): 685 ± 93 mm^3

N#CC(C(=O)Nc1ccccc1)C(=O)c1nn(-c2ccccc2)c2c1Cc1ccccc1-2 (centres unmarked) [FCE 25276, 2-cyano-3-(1,4-dihydro-1-phenyl-indeno[1,2-c]pyrazol-3-yl)-3-oxo-N-phenyl-propanamide]
inhibition in vivo at 10 mg/kg [2, 6]: 41% | inhibition in vivo at 10 mg/kg [2, 7]: 47% | inhibition in vivo at 10 mg/kg [2, 8]: 58% | Oedema volume ± S.E., day 18 ([2]; Table 2, day 18): 587 ± 233 mm^3 | Oedema volume ± S.E., day 21 ([2]; Table 2, day 21): 587 ± 254 mm^3 | Oedema volume ± S.E., day 25 ([2]; Table 2, day 25): 512 ± 304 mm^3

N#CC(C(=O)NCc1ccccc1)C(=O)c1nn(-c2ccccc2)c2c1CSc1ccccc1-2 (centres unmarked) [FCE 25324, N-benzyl-2-cyano-3-(1,4-dihydro-1-phenyl-[1]-benzothiopyrano [4,3-c]pyrazol-3-yl)-3-oxo-propanamide]
inhibition in vivo at 10 mg/kg [2, 3]: 51% | inhibition in vivo at 10 mg/kg [2, 4]: 57% | inhibition in vivo at 10 mg/kg [2, 5]: 60% | Oedema volume ± S.E., day 18 ([2]; Table 1, day 18): 565 ± 72 mm^3 | Oedema volume ± S.E., day 21 ([2]; Table 1, day 21): 575 ± 97 mm^3 | Oedema volume ± S.E., day 25 ([2]; Table 1, day 25): 545 ± 78 mm^3

N#CC(C(=O)Nc1ccc(F)cc1)C(=O)c1nn(-c2ccc(F)cc2)c2c1Cc1ccccc1-2 (centres unmarked) [FCE 26317, 2-cyano-N-(4-fluoro-phenyl)-3-[1-(4-fluoro-phenyl)-1,4-dihydro-indeno[1,2-c]pyrazol-3-yl]-3-oxo-propanamide]
inhibition in vivo at 10 mg/kg [2, 6]: 37% | inhibition in vivo at 10 mg/kg [2, 7]: 38% | inhibition in vivo at 10 mg/kg [2, 8]: 44% | Oedema volume ± S.E., day 18 ([2]; Table 2, day 18): 629 ± 347 mm^3 | Oedema volume ± S.E., day 21 ([2]; Table 2, day 21): 686 ± 393 mm^3 | Oedema volume ± S.E., day 25 ([2]; Table 2, day 25): 683 ± 417 mm^3

N#CC(C(=O)Nc1ccccc1)C(=O)c1nn(-c2ccccc2)c2c1Cc1c(CN3CCOCC3)cccc1-2 (centres unmarked) [FCE 26626, 2-cyano-3-(1,4-dihydro-5-morpholinomethyl-1-phenyl-indeno[1,2-c]pyrazol-3-yl)-3-oxo-N-phenyl-propanamide]
inhibition in vivo at 10 mg/kg [2, 6]: 57% | inhibition in vivo at 10 mg/kg [2, 7]: 47% | inhibition in vivo at 10 mg/kg [2, 8]: 54% | Oedema volume ± S.E., day 18 ([2]; Table 2, day 18): 425 ± 173 mm^3 | Oedema volume ± S.E., day 21 ([2]; Table 2, day 21): 587 ± 222 mm^3 | Oedema volume ± S.E., day 25 ([2]; Table 2, day 25): 562 ± 234 mm^3

CC(C)(C)OC(=O)c1cccc2c1SCc1c(C(=O)C(C#N)C(=O)Nc3ccccc3)nn(-c3ccccc3)c1-2 (centres unmarked) [FCE 26674, 3-(6-tert-butoxycarbonyl-1,4-dihydro-1-phenyl-[1]-benzothiopyrano[4,3-c]pyrazol-3-yl)-2-cyano-3-oxo-N-phenyl-propanamide]
inhibition in vivo at 10 mg/kg [2, 6]: 24% | inhibition in vivo at 10 mg/kg [2, 7]: 40% | inhibition in vivo at 10 mg/kg [2, 8]: 34% | Oedema volume ± S.E., day 18 ([2]; Table 2, day 18): 757 ± 209 mm^3 | Oedema volume ± S.E., day 21 ([2]; Table 2, day 21): 662 ± 182 mm^3 | Oedema volume ± S.E., day 25 ([2]; Table 2, day 25): 812 ± 226 mm^3

N#CC(C(=O)Nc1ccccc1)C(=O)c1nn(-c2ccccc2)c2c1Cc1ccc(F)cc1-2 (centres unmarked) [FCE 26676, 2-cyano-3-(7-fluoro-1,4-dihydro-1-phenyl-indeno[1,2-c]pyrazol-3-yl)-3-oxo-N-phenyl-propanamide]
inhibition in vivo at 10 mg/kg [2, 6]: 65% | inhibition in vivo at 10 mg/kg [2, 7]: 54% | inhibition in vivo at 10 mg/kg [2, 8]: 50% | Oedema volume ± S.E., day 18 ([2]; Table 2, day 18): 350 ± 127 mm^3 | Oedema volume ± S.E., day 21 ([2]; Table 2, day 21): 512 ± 203 mm^3 | Oedema volume ± S.E., day 25 ([2]; Table 2, day 25): 612 ± 225 mm^3
